From ChEMBL document CHEMBL4138292, “Metabolomics-Guided Discovery of Microginin Peptides from Cultures of the Cyanobacterium Microcystis aeruginosa” (J Nat Prod, 2018)

target: Angiotensin-converting enzyme (Homo sapiens, UniProt P12821); experiment: Inhibition of ACE (unknown origin) using hippuryl-L-histidyl-L-leucine as substrate preincubated with substrate for 30 mins followed by enzyme addition measured after 30 mins by LC/MS analysis
Sequence (P12821 whole entry): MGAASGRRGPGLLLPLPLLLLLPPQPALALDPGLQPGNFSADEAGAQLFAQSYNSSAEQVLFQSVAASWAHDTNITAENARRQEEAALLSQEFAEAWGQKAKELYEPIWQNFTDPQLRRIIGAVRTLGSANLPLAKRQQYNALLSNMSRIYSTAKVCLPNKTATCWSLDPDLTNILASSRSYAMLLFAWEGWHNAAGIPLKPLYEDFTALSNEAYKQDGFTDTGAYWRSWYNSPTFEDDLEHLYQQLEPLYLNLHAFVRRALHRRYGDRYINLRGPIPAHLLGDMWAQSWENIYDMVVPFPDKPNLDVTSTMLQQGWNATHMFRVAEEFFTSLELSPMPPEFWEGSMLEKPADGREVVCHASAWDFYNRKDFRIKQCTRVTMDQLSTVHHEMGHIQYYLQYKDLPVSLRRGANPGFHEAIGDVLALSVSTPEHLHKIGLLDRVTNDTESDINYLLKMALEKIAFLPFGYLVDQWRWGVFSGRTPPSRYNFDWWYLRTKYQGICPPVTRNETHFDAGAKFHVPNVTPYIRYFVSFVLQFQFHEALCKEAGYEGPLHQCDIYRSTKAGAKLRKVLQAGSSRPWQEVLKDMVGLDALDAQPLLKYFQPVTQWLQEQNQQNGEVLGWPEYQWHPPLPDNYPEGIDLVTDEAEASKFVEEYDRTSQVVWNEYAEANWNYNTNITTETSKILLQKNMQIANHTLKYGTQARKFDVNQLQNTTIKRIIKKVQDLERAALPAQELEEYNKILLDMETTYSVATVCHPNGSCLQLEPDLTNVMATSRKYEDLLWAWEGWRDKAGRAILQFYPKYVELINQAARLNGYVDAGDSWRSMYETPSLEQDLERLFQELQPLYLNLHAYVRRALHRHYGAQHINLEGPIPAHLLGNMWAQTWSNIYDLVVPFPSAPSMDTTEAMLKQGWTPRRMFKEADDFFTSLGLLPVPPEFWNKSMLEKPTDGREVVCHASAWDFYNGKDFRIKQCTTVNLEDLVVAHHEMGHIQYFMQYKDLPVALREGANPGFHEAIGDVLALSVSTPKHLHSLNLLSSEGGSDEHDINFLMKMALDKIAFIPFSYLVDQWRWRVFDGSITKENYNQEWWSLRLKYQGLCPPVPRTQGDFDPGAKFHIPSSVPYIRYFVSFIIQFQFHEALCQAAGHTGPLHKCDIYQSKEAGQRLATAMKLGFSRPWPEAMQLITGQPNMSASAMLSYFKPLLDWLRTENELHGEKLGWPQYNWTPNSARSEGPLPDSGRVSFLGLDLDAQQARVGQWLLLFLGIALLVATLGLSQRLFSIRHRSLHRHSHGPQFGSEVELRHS

IC50 | Compound
31 µM | CCCCCCC[C@H](N)[C@H](O)C(=O)N(C)[C@@H](CC[S+](C)[O-])C(=O)N[C@@H](Cc1ccc(O)cc1)C(=O)O (stereo partly drawn)
460 µM | CCCCCCC[C@H](N)[C@H](O)C(=O)N[C@@H](C)C(=O)N[C@H](C(=O)O)C(C)C
14 µM | O=C(O)CN(CCN(CC(=O)O)CC(=O)O)CC(=O)O [EDETIC ACID]
